This note sets out measurements from ChEMBL document CHEMBL1151277, “Sesquiterpene chromones from Ferula fukanensis and their nitric oxide production inhibitory effects” (J Nat Prod, 2005).

In brackets after ≈: the same amount, converted by molar mass.

One assay relates to RAW264.7. The assay is described as follows: Inhibition of LPS and IFN-gamma-induced iNOS mRNA expression in mouse RAW264.7 cells for 8 hrs by RT-PCR analysis. It is filed as functional, cell-based.
Details: not given
Regarding `CC(C)=CC(=O)/C=C(/C)CCC[C@]1(C)Oc2oc3cc(O)ccc3c(=O)c2[C@H]1C` (relative stereo) [FUKANEFUROCHROMONE D], the Activity result is “Dose-dependent effect”.

The next assay concerns RAW264.7. The assay is described as follows: Inhibition of LPS and IFN-gamma-induced nitric oxide production in mouse RAW264.7 cells after 16 hrs by Griess assay. Conditions: RAW264.7, 16 h. It is filed as functional, cell-based. A general note: The Griess reaction detects nitrite, a stable product of nitric oxide.
In general, IC50 refers to the concentration that inhibits the measured activity by half. `CC(C)=CCC/C(C)=C/CC[C@]1(C)Oc2oc3cc(O)ccc3c(=O)c2[C@H]1C` came in with a half-inhibitory concentration (IC50) of 4.1 µg/mL (≈ 10.7 µM).

Turning to `CC(C)=CC(=O)C/C(C)=C/CC[C@]1(C)Oc2oc3cc(O)ccc3c(=O)c2[C@H]1C` (relative stereo) [FUKANEFUROCHROMONE A], the IC50 was 9.8 µg/mL (≈ 24.7 µM).

On to `CC(C)=CC(=O)C/C(C)=C/CC[C@@]1(C)Oc2oc3cc(O)ccc3c(=O)c2[C@H]1C` (relative stereo) [FUKANEFUROCHROMONE B], for which the half-inhibitory concentration (IC50) was determined as 8.9 µg/mL (≈ 22.4 µM).

With `CC(C)=CC(=O)/C=C(\C)CCC[C@]1(C)Oc2oc3cc(O)ccc3c(=O)c2[C@H]1C` (relative stereo) [FUKANEFUROCHROMONE C], the midpoint of inhibition, the IC50, lay at 11.5 µg/mL (≈ 29 µM).

As for `CC(C)=CC(=O)/C=C(/C)CCC[C@]1(C)Oc2oc3cc(O)ccc3c(=O)c2[C@H]1C` (relative stereo) [FUKANEFUROCHROMONE D], the midpoint of inhibition, the IC50, lay at 9.5 µg/mL (≈ 24 µM). This IC50 and that of the compound before are within 1.5-fold of each other.
